Data: ChEMBL document CHEMBL1128774, “Substrate specificity of farnesyl diphosphate synthase from Bacillus stearothermophilus” (Bioorg Med Chem Lett, 1995)
Activity calls are given as the source filed them. The calls are words filed in the database; no cut-off is given here.

What was measured:
[1] = system: Farnesyl diphosphate synthase (Sus scrofa); assay: Compound was tested for apparent Km values of Farnesyl diphosphate synthase from Pig liver; Active
[2] = system: Farnesyl diphosphate synthase (Geobacillus stearothermophilus); assay: Compound was tested for apparent Km values of Farnesyl diphosphate synthase from Bacteria; Active

Activity [1]: Active
Activity [2]: Active
SMILES: C/C(=C\COP(=O)(O)OP(=O)(O)O)CCCO
